Legend:
Experiment in all cases: Bliss excess, mean over the matrix (fraction); higher = more synergy
[1] = system: HT-29 (Colorectal Carcinoma)
Method in brief: (§1)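 Bliss excess equals the observed combination effect minus the expected value EA + EB − EA·EB, where EA and EB are the effects of each agent alone. Combination Emax is the second-highest inhibition within the matrix. Inhibition was scaled from CellTiter-Glo 2.0 luminescence, with 0 set by vehicle wells and 1 by blank wells, after 72 hours of two-drug dosing of cells plated in 1536-well plates.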

[2] = system: OCI-AML2 (Acute Myeloid Leukemia)
Method in brief: as §1

[3] = system: COR-L95 (Small Cell Lung Carcinoma)
Method in brief: as §1

NCI-H2595 (Mesothelioma) = system: NCI-H2595 (Mesothelioma)
Method in brief: as §1

DSH1 (Bladder Carcinoma) = system: DSH1 (Bladder Carcinoma)
Method in brief: as §1

[4] = system: SW1088 (Low Grade Glioma)
Method in brief: as §1

SK-N-FI (Neuroblastoma) = system: SK-N-FI (Neuroblastoma)
Method in brief: as §1

[5] = system: MFH-ino (Other Solid Carcinomas)
Method in brief: as §1

[6] = system: KATOIII (Gastric Carcinoma)
Method in brief: as §1

[7] = system: SW1783 (Low Grade Glioma)
Method in brief: as §1

[8] = system: MDA-MB-231 (Breast Carcinoma)
Method in brief: as §1

[9] = system: NCI-H211 (Small Cell Lung Carcinoma)
Method in brief: as §1

[10] = system: DB (B-Cell Non-Hodgkin's Lymphoma)
Method in brief: as §1

[11] = system: SW1990 (Pancreatic Carcinoma)
Method in brief: as §1

[12] = system: NALM-6 (B-Lymphoblastic Leukemia)
Method in brief: as §1

[13] = system: DOV13 (Ovarian Carcinoma)
Method in brief: as §1

[14] = system: G-292-Clone-A141B1 (Osteosarcoma)
Method in brief: as §1

[15] = system: MDA-MB-157 (Breast Carcinoma)
Method in brief: as §1

[16] = system: LS-513 (Colorectal Carcinoma)
Method in brief: as §1

ES7 (Ewing's Sarcoma) = system: ES7 (Ewing's Sarcoma)
Method in brief: as §1

SMILES	Bliss excess [1]	Bliss excess [2]	Bliss excess [3]	Bliss excess (NCI-H2595 (Mesothelioma))	Bliss excess (DSH1 (Bladder Carcinoma))	Bliss excess [4]	Bliss excess (SK-N-FI (Neuroblastoma))	Bliss excess [5]	Bliss excess [6]	Bliss excess [7]	Bliss excess [8]	Bliss excess [9]	Bliss excess [10]	Bliss excess [11]	Bliss excess [12]	Bliss excess [13]	Bliss excess [14]	Bliss excess [15]	Bliss excess [16]	Bliss excess (ES7 (Ewing's Sarcoma))
N#Cc1cnc(Nc2cc(NC[C@H]3CNCCO3)c(C(F)(F)F)cn2)cn1 [SRA737] + CCc1c2c(nc3ccc(O)cc13)-c1cc3c(c(=O)n1C2)COC(=O)[C@]3(O)CC [SN-38] (first compound max 10 µM, 7x7, partner max 0.3 µM)	0.0196	-0.0348	-0.0191	-0.0762	-0.0809	-0.0339	-0.121	-0.0461	-0.0046	-0.038	-0.0227	-0.0649	-0.0472	-0.0824	-0.0083	-0.0469	0.0099	0.0125	-0.114	-0.0138
N#Cc1cnc(Nc2cc(NC[C@H]3CNCCO3)c(C(F)(F)F)cn2)cn1 [SRA737] + C=CCn1c(=O)c2cnc(Nc3ccc(N4CCN(C)CC4)cc3)nc2n1-c1cccc(C(C)(C)O)n1 [AZD1775] (first compound max 10 µM, partner max 1 µM)	0.0394	0.071	0.0077	-0.0688	-0.0441	0.0681	0.0703	-0.013	-0.0327	0.0153	0.0607	0.169	0.0626	-0.0149	0.11	0.132	-0.009	0.119	0.0476	0.102
O=C(c1cc(Cc2n[nH]c(=O)c3ccccc23)ccc1F)N1CCN(C(=O)C2CC2)CC1 [Olaparib] + Cc1c2c(nn1C)CSCc1cc(n(C)n1)CSc1cc(c3ccccc3c1)OCCCc1c(C(=O)O)n(C)c3c-2c(Cl)ccc13 [AZD5991] (first compound max 10 µM, 7x7, partner max 1 µM)	-0.0333	0.0775	-0.0514	-0.0396	-0.0097	-0.0383	-0.0321	-0.069	-0.0852	-0.0388	-0.0354	0.024	0.0141	-0.0296	-0.039	-0.0158	-0.0462	-0.0291	-0.0082	0.022
CC1(C)CCC(CN2CCN(c3ccc(C(=O)NS(=O)(=O)c4ccc(NCC5CCOCC5)c([N+](=O)[O-])c4)c(Oc4cnc5[nH]ccc5c4)c3)CC2)=C(c2ccc(Cl)cc2)C1 [Venetoclax] + CS(=O)(=O)CCNCc1ccc(-c2ccc3ncnc(Nc4ccc(OCc5cccc(F)c5)c(Cl)c4)c3c2)o1 [Lapatinib] (first compound max 1 µM, 7x7, partner max 10 µM)	-0.0493	0.0327	-0.0566	-0.0574	-0.021	-0.0313	-0.0126	-0.0699	-0.0386	-0.0232	-0.034	-0.0037	0.0803	-0.0384	0.0563	-0.0228	-0.045	-0.0549	-0.0203	0.0086
C[C@@H]1COCCN1c1cc(C2([S@](C)(=N)=O)CC2)nc(-c2ccnc3[nH]ccc23)n1 [AZD6738] + C1CC(C1)(C(=O)[O-])C(=O)[O-].N.N.[Pt+2] [Carboplatin] (first compound max 10 µM, 7x7, partner max 10 µM)	-0.0194	-0.0318	-0.106	-0.0413	-0.0559	-0.0426	-0.049	-0.0397	-0.0879	-0.0337	-0.0294	-0.0292	-0.0019	-0.0997	-0.0122	-0.0236	0.0001	-0.0061	-0.0225	0.0089
O=C(c1cc(Cc2n[nH]c(=O)c3ccccc23)ccc1F)N1CCN(C(=O)C2CC2)CC1 [Olaparib] + COc1nnc2ccc(N3CCC(c4ccc(OCCN5CCN(C)C(=O)[C@H]5C)cc4)CC3)nn12 [AZD5153] (first compound max 10 µM, 7x7, partner max 1 µM)	-0.0406	-0.02	-0.0488	-0.12	-0.0925	-0.0563	-0.0577	-0.07	-0.0584	-0.0177	-0.0586	-0.0168	0.0255	-0.0669	-0.0547	-0.0778	-0.0523	-0.0507	-0.0628	0.0166
C[C@@H](Nc1cc(F)cc(F)c1)c1cc(C(=O)N(C)C)cc2c(=O)cc(N3CCOCC3)oc12 [AZD8186] + C1CN(CCC1(C(=O)N[C@@H](CCO)C2=CC=C(C=C2)Cl)N)C3=NC=NC4=C3C=CN4 [AZD5363] (first compound max 10 µM, 7x7, partner max 10 µM)	-0.0172	-0.0007	-0.0781	-0.0537	-0.0297	-0.0474	-0.0299	-0.0258	-0.0739	-0.0125	0.0036	-0.0006	-0.0191	-0.0436	-0.0357	0.026	-0.0518	0.0227	-0.0681	0.0043
Cc1c2c(nn1C)CSCc1cc(n(C)n1)CSc1cc(c3ccccc3c1)OCCCc1c(C(=O)O)n(C)c3c-2c(Cl)ccc13 [AZD5991] + CS(=O)(=O)CCNCc1ccc(-c2ccc3ncnc(Nc4ccc(OCc5cccc(F)c5)c(Cl)c4)c3c2)o1 [Lapatinib] (first compound max 1 µM, 7x7, partner max 10 µM)	-0.0216	0.0415	-0.0199	-0.0398	0.0013	-0.0137	-0.0808	-0.0513	-0.0787	-0.0106	-0.0852	-0.0118	0.0597	0.0149	-0.101	0.0072	-0.0185	0.0108	0.0305	0.0148
C[C@@H](Nc1cc(F)cc(F)c1)c1cc(C(=O)N(C)C)cc2c(=O)cc(N3CCOCC3)oc12 [AZD8186] + CC(=O)c1c(C)c2cnc(Nc3ccc(N4CCNCC4)cn3)nc2n(C2CCCC2)c1=O [Palbociclib] (first compound max 10 µM, 7x7, partner max 10 µM)	0.0614	0.132	-0.0215	-0.0917	0.104	0.0658	0.0089	0.0173	0.0615	0.0594	0.0305	0.2	0.0797	-0.0062	0.0084	-0.224	-0.0001	0.0093	0.0084	0.115
N#Cc1cnc(Nc2cc(NC[C@H]3CNCCO3)c(C(F)(F)F)cn2)cn1 [SRA737] + O=c1[nH]cc(F)c(=O)[nH]1 [5-Fluorouracil] (first compound max 10 µM, 7x7, partner max 20 µM)	0.021	0.0247	-0.0218	-0.0448	0.0051	0.0081	-0.0627	0.0373	-0.0805	0.0143	-0.0492	0.0823	-0.0088	-0.0577	0.0117	0.0258	-0.0458	0.0781	-0.0287	0.0157
O=C(c1cc(Cc2n[nH]c(=O)c3ccccc23)ccc1F)N1CCN(C(=O)C2CC2)CC1 [Olaparib] + CC1(C)CCC(CN2CCN(c3ccc(C(=O)NS(=O)(=O)c4ccc(NCC5CCOCC5)c([N+](=O)[O-])c4)c(Oc4cnc5[nH]ccc5c4)c3)CC2)=C(c2ccc(Cl)cc2)C1 [Venetoclax] (first compound max 10 µM, 7x7, partner max 1 µM)	-0.0304	0.0964	0.0791	-0.0577	-0.0401	-0.0611	-0.0527	-0.0622	-0.0146	-0.0349	0.0001	0.0865	0.0522	-0.0509	0.104	-0.0322	-0.0566	-0.0406	-0.0498	0.0282
CN(CCO)CC[C@H](CSc1ccccc1)Nc1ccc(S(=O)(=O)NC(=O)c2ccc(N3CCC([C@@H](O)c4ccccc4-c4ccc(Cl)cc4)CC3)cc2)cc1S(=O)(=O)C(F)(F)F [AZD4320] + CS(=O)(=O)CCNCc1ccc(-c2ccc3ncnc(Nc4ccc(OCc5cccc(F)c5)c(Cl)c4)c3c2)o1 [Lapatinib] (first compound max 1 µM, 7x7, partner max 10 µM)	-0.0113	0.0843	0.0386	0.0034	0.0511	-0.0544	0.057	-0.0732	-0.0407	0.0765	0.0241	0.0409	0.0048	-0.0093	-0.0112	0.0488	0.0467	0.019	0.0667	0.0769
Cc1c2c(nn1C)CSCc1cc(n(C)n1)CSc1cc(c3ccccc3c1)OCCCc1c(C(=O)O)n(C)c3c-2c(Cl)ccc13 [AZD5991] + Nc1ccn([C@@H]2O[C@H](CO)[C@@H](O)C2(F)F)c(=O)n1 [Gemcitabine] (first compound max 1 µM, 7x7, partner max 0.3 µM)	0.0168	0.0516	-0.0274	-0.0053	0.053	-0.0666	0.0074	-0.0495	0.0444	-0.0199	-0.0947	0.0489	0.06	0.0278	-0.0245	-0.0605	-0.0587	-0.0145	-0.102	0.0062
